We go through four molecules from PMC11748363, “Antimicrobial and Antiproliferative Properties of 2‐Phenyl‐N‐(Pyridin‐2‐yl)acetamides” (Chemical Biology & Drug Design, 2025).

Series [1] has as its system Mycobacterium tuberculosis H37Ra. Kind of series: Antimycobacterial microdilution broth MIC (resazurin), Mtb H37Ra. It is filed as cell-based. The following applies: for MIC: Mycobacterium tuberculosis, H37RA, read-out: MIC Mtb H37Ra. For orientation: Dilution methods test growth across graded concentrations, often in twofold steps.
Series [2] has as its system Mycolicibacterium smegmatis DSM 43465. Description: Antimycobacterial microdilution broth MIC (resazurin), M. smegmatis. It is filed as cell-based. The following applies: DSM43465, read-out: MIC M. smegmatis.
The subject of series [3] is Mycolicibacterium aurum DSM 43999. Kind of series: Antimycobacterial microdilution broth MIC (resazurin), M. aurum. The following applies: DSM43999, read-out: MIC M. aurum. It is filed as cell-based.
Series [4] deals with HK‐2 cell line. Kind of series: Cytotoxicity CellTiter 96, HK-2 normal cell line. It is filed as cell-based. As to conditions: Homo sapiens, 24 h incubation. As for the experimental part:
(§1) The cytotoxicity of final compounds was determined in human hepatocellular carcinoma cell line HepG2. Additional testing of selected compounds was performed on human epithelial kidney cancer cell line A498, human prostate cancer cell line PC‐3, human glioblastoma cell line U‐87 MG, and normal human proximal tubule cell line HK‐2.
1.4. Cytotoxicity determination […]
(§2) For subculturing, the cells were harvested after trypsin/EDTA (Sigma–Aldrich) treatment at 37 °C. To evaluate cytotoxicity, the cells treated with the tested substances were used as experimental groups whereas untreated HepG2 cells served as controls. The cells were seeded in density 10,000 cells per well in a 96 well plate. The next day the cells were treated with each of the tested substances dissolved in DMSO. The tested substances were […]
in triplicates according to their solubility. Simultaneously, the controls representing 100% cell viability, 0% cell viability (the cells treated with 10% DMSO), no cell control and vehiculum controls were also prepared in triplicates. After 24 h incubation in a humidified atmosphere containing 5% CO2 at […], the reagent from the kit CellTiter 96 AQueous One Solution Cell Proliferation Assay (CellTiter 96; PROMEGA, Fitchburg, USA) was added. After 2h incubation at 37 °C, absorbance of samples was recorded at 490 nm (TECAN, Infinita M200, Austria). A standard toxicological parameter IC50 was calculated by nonlinear regression from a semilogarithmic plot of incubation concentration versus percentage of absorbance relative to untre ated controls using GraphPad Prism 8 software.
(§3) Human epithelial kidney carcinoma A498 cell line, obtained from American Type Culture Collection (ATCC, Manassas, VA, USA, catalogue No.: HTB -44), was cultured in RPMI medium, Human normal kidney proximal tubule HK-2 cell line obtained from ATCC (ATCC, Manassas, VA, USA, catalogue No.:
CRL-2190) was cultured in DMEM High Glucose medium, Human prostate adenocarcinoma PC-3 cell line, obtained from ATCC (Manassas, VA, USA, catalogue No.: 90112714), was cultured in a Kaighn's Modification of Ham's F-12 Medium and human glioblastoma astrocytoma U-87 MG cell line, obtained from ECACC (ECACC, Salisbury, UK, catalogue No.: 89081402) was cultured in DMEM High Glucose medium. All cultures were supplemented with 10% fetal bovine serum, 1% non-essential amino acids (A498, HK-2 and U-87 MG), 1% sodium pyruvate (A498, HK-2 and U-87 MG) and 2 mM L-glutamine. […]
Simultaneously, the controls representing 100% cell viability, 0% cell viability (the cells treated with 10% DMSO), no cell control and vehiculum controls were also prepared in triplicates. […] Eventually, a colorimetric assay reagent CellTiter 96 AQueous One Solution Cell Proliferation Assay was added, and absorption was measured.

Series [5] deals with Staphylococcus aureus CCM 4223, ATCC 29213. Description: Antibacterial microdilution broth MIC, SA. It is filed as cell-based. The following applies: Staphylococcus aureus.
Series [6] concerns Enterococcus faecalis CCM 4224, ATCC 29212. Kind of series: Antibacterial microdilution broth MIC, EF. It is filed as cell-based.
In series [7] the test system is Pseudomonas aeruginosa CCM 3955, ATCC 27853. Kind of series: Antibacterial microdilution broth MIC, PA. It is filed as cell-based.
For series [8], the system named is Candida albicans CCM 8320, ATCC 24433. Kind of series: Antifungal microdilution broth MIC, CA.
The subject of series [9] is Candida tropicalis CCM 8264, ATCC 750. Kind of series: Antifungal microdilution broth MIC, CT.
The subject of series [10] is Klebsiella pneumoniae CCM 4415, ATCC 10031. Description: Antibacterial microdilution broth MIC, KP.
The subject of series [11] is A498 cell line. Kind of series: Cytotoxicity CellTiter 96, A498. As to conditions: Homo sapiens, 24 h incubation. It is filed as cell-based. As for the experimental part:
as §1
(§4) Cytotoxicity determination […]
as §2
(§5) in triplicates according to their solubility. Simultaneously, the controls representing 100% cell viability, 0% cell viability (the cells treated with 10% DMSO), no cell control and vehiculum controls were also […]
the reagent from the kit CellTiter 96 AQueous One Solution Cell Proliferation Assay (CellTiter 96; PROMEGA, Fitchburg, USA) was added. After 2h incubation at 37 °C, absorbance of samples was recorded at 490 nm (TECAN, Infinita M200, Austria). A standard toxicological parameter IC50 was calculated by nonlinear regression from a semilogarithmic plot of incubation concentration versus percentage of absorbance relative to untre ated controls using GraphPad Prism 8 software.
as §3
(§6) Kaighn's Modification of Ham's F-12 Medium and human glioblastoma astrocytoma U-87 MG cell line, […]
Glucose medium. All cultures were supplemented with 10% fetal bovine serum, 1% non-essential amino acids (A498, HK-2 and U-87 MG), 1% sodium pyruvate (A498, HK-2 and U-87 MG) and 2 mM L-glutamine. […]

For series [12], the system named is PC‐3 cell line. Description: Cytotoxicity CellTiter 96, PC-3. It is filed as cell-based. The following applies: Homo sapiens, 24 h incubation. As for the experimental part: as §1, §4, §2, §5
(§7) the reagent from the kit CellTiter 96 AQueous One Solution Cell Proliferation Assay (CellTiter 96; PROMEGA, Fitchburg, USA) was added. After 2h incubation at 37 °C, absorbance of samples was recorded at 490 nm (TECAN, Infinita M200, Austria). A standard toxicological parameter IC50 was calculated by nonlinear regression from a semilogarithmic plot of incubation concentration versus percentage of absorbance relative to untre ated controls using GraphPad Prism 8 software. […]
as §6
(§8) Glucose medium. All cultures were supplemented with 10% fetal bovine serum, 1% non-essential amino acids (A498, HK-2 and U-87 MG), 1% sodium pyruvate (A498, HK-2 and U-87 MG) and 2 mM L-glutamine. All cell culture consumables were purchased from Merck (Darmstadt, Germany). The cells

Series [13] concerns U‐87 MG cell line. Kind of series: Cytotoxicity CellTiter 96, U-87 MG. The following applies: Homo sapiens, 24 h incubation. It is filed as cell-based. As for the experimental part:
as §1, §4, §2, §5, §7, §6, §8

Each structure is given as a SMILES string. Values after ≈ are worked out from the molar mass of the structure shown. Where two headings read alike, the source gives them in different places. Where only a bound is given, the exact number is not on record here.

Broadly, the MIC is the smallest concentration in the dilution series that meets the test's criterion for growth inhibition. In general, IC50 refers to the concentration at which inhibition is half-maximal. A lower IC50 goes with inhibition by little substance.

For the molecule `COc1ccc(CC(=O)Nc2cccc(Cl)n2)cc1` [Compound 12, 2-(4-methoxyphenyl)-N-(6-chloropyridin-2-yl)acetamide], the minimal inhibitory concentration (MIC) in series [1] (Calculated from MIC (μg/mL)) is 56.3 µM; in series [1], 15.6 µg/mL; in series [2] it was 62.5 µg/mL (≈ 226 µM); in [3] it was 62.5 µg/mL (≈ 226 µM); in series [5] (24 h, read-out: MIC SA 24h), 500 µM (≈ 138 µg/mL); in series [5] (48 h, read-out: MIC SA 48h) it was 500 µM (≈ 138 µg/mL). The MIC was 500 µM (≈ 138 µg/mL) in [6] (24 h, read-out: MIC EF 24h); 500 µM (≈ 138 µg/mL) in series [6] (48 h, read-out: MIC EF 48h); above 500 µM in series [7] (24 h, read-out: MIC PA 24h); above 500 µM in [7] (48 h, read-out: MIC PA 48h); above 500 µM in [8] (24 h, read-out: MIC CA 24h); above 500 µM in [8] (48 h, read-out: MIC CA 48h). In addition, the MIC in series [9] (24 h, read-out: MIC CT 24h) was above 500 µM; in series [9] (48 h, read-out: MIC CT 48h), above 500 µM. Besides, in [1] (SI = HepG2 IC50 (μM)/MIC MtbH37Ra (μM), calculated for compounds with MIC ≤ 31.25 μg/mL), the “SI (selectivity index)” value is 9.2. In [4], this molecule returned an IC50 above 250 µM. For the same molecule, the “MIC KP 24h” value in series [10] was above 500 µM. The “MIC KP 48h” value in series [10] was above 500 µM.

On to `O=C(Cc1ccccc1C(F)(F)F)Nc1cccc(Cl)n1` [Compound 24], for which the MIC in series [1] (Calculated from MIC (μg/mL)) was above 1590 µM; in series [1], above 500 µg/mL; in series [2], above 500 µg/mL; in series [3], above 500 µg/mL; in series [5] (24 h, read-out: MIC SA 24h), above 500 µM; in [5] (48 h, read-out: MIC SA 48h) it was above 500 µM. Besides, the minimal inhibitory concentration (MIC) in series [6] (24 h, read-out: MIC EF 24h) is above 500 µM; in [6] (48 h, read-out: MIC EF 48h), above 500 µM; in [7] (24 h, read-out: MIC PA 24h) it was above 500 µM; in series [7] (48 h, read-out: MIC PA 48h), above 500 µM; in [8] (24 h, read-out: MIC CA 24h) it was above 500 µM; in series [8] (48 h, read-out: MIC CA 48h), above 500 µM. For the same molecule, the MIC is above 500 µM in series [9] (24 h, read-out: MIC CT 24h) and above 500 µM in series [9] (48 h, read-out: MIC CT 48h). Further, the 50% inhibitory concentration (IC50) was 278 µM in series [11], above 100 µM in series [12], above 250 µM in [13] and 247 µM in [4]. The “MIC KP 24h” value in series [10] is above 500 µM. In series [10], the “MIC KP 48h” value is above 500 µM.

With `O=C(Cc1cccc(Cl)c1)Nc1ccc(Cl)cn1` [Compound 17, 2-(3-chlorophenyl)-N-(5-chloropyridin-2-yl)acetamide], the minimum inhibitory concentration (MIC) in [1] (Calculated from MIC (μg/mL)) is 445 µM; in [1], 125 µg/mL; in series [2] it was above 500 µg/mL; in [3] it was 250 µg/mL (≈ 889 µM); in series [5] (24 h, read-out: MIC SA 24h), above 500 µM; in [5] (48 h, read-out: MIC SA 48h), above 500 µM. The MIC in [6] (24 h, read-out: MIC EF 24h) is above 500 µM; in series [6] (48 h, read-out: MIC EF 48h), above 500 µM; in series [7] (24 h, read-out: MIC PA 24h), above 500 µM; in [7] (48 h, read-out: MIC PA 48h) it was above 500 µM; in series [8] (24 h, read-out: MIC CA 24h), above 500 µM; in [8] (48 h, read-out: MIC CA 48h), above 500 µM. The minimal inhibitory concentration (MIC) was above 500 µM in series [9] (24 h, read-out: MIC CT 24h) and above 500 µM in series [9] (48 h, read-out: MIC CT 48h). The IC50 in [11] was found to be 135 µM; in series [12] it was 213 µM; in [13] it was 161 µM; in series [4], 138 µM. Moreover, the “MIC KP 24h” value in series [10] was above 500 µM. In [10], the “MIC KP 48h” value is above 500 µM.

With `O=C(Cc1cccc(C(F)(F)F)c1)Nc1ccc(Cl)cn1` [Compound 26], the MIC was above 1590 µM in series [1] (Calculated from MIC (μg/mL)); above 500 µg/mL in series [1]; 125 µg/mL (≈ 397 µM) in series [2]; above 500 µg/mL in [3]; above 500 µM in series [5] (24 h, read-out: MIC SA 24h); above 500 µM in series [5] (48 h, read-out: MIC SA 48h). Besides, the MIC was above 500 µM in series [6] (24 h, read-out: MIC EF 24h); above 500 µM in [6] (48 h, read-out: MIC EF 48h); above 500 µM in [7] (24 h, read-out: MIC PA 24h); above 500 µM in [7] (48 h, read-out: MIC PA 48h); above 500 µM in series [8] (24 h, read-out: MIC CA 24h); above 500 µM in series [8] (48 h, read-out: MIC CA 48h). Besides, the MIC in series [9] (24 h, read-out: MIC CT 24h) was above 500 µM; in series [9] (48 h, read-out: MIC CT 48h) it was above 500 µM. Also, the IC50 was 128 µM in series [11], 73.1 µM in series [12], 158 µM in series [13] and 29.9 µM in series [4]. In addition, in series [10], the “MIC KP 24h” value was above 500 µM. For the same molecule, the “MIC KP 48h” value in [10] was above 500 µM.
